Data as given in patent publication US9029355B2, “Solid ganaxolone compositions and methods for the making and use thereof” (Marinus Pharmaceuticals, priority 2005, dated 2015).

Test: Solubility of ganaxolone using water soluble beta cyclodextrins
Type: physicochemical
Settings: water soluble beta cyclodextrins (beta-sulfobutyl-cyclodextrin, 2-hydroxypropylbetacyclodextrin)
Description: Ganaxolone formulations suitable for intramuscular, subcutaneous, or intravenous injection may comprise physiologically acceptable sterile aqueous or non-aqueous solutions, dispersions, suspensions or emulsions, and sterile powders for reconstitution into sterile injectable solutions or dispersions. Examples of suitable aqueous and non-aqueous carriers, diluents, solvents, or vehicles including water, ethanol, polyols (propylene glycol, polyethylene-glycol, glycerol, cremophor and the like), suitable mixtures thereof, vegetable oils (such as olive oil) and injectable organic esters such as ethyl oleate. Additionally, Ganaxolone can be dissolved at concentrations of >1 mg/ml using water soluble beta cyclodextrins (e.g. beta-sulfobutyl-cyclodextrin and 2-hydroxypropylbetacyclodextrin. Proper fluidity can be maintained, for example, by the use of a coating such as lecithin, by the maintenance of the required particle size in the case of dispersions, and by the use of surfactants. Ganaxolone formulations suitable for subcutaneous injection may also contain additives such as preserving, wetting, emulsifying, and dispensing agents. Prevention of the growth of microorganisms can be ensured by various antibacterial and antifungal agents, such as parabens, benzoic acid, benzyl alcohol, chlorobutanol, phenol, sorbic acid, and the like. […]

## CC(=O)[C@H]1CC[C@H]2[C@@H]3CC[C@H]4C[C@](C)(O)CC[C@]4(C)[C@H]3CC[C@]12C [Ganaxolone, 3α-hydroxy-3β-methyl-5α-pregnan-20-one]
  concentration dissolved: > 1000 µg/mL
